Laboratory results as given in patent publication US10406236B2, “Single wall nanotube constructs and uses thereof” (Sloan-Kettering Institute for Cancer Research, priority 2005, dated 2019).

Assays:
[1] = test system: serum antibodies; assay: Competition study of serum antibodies to SWNT; assay type: binding, Balb/c mice; conditions: high concentrations (>0.1 mg/ml)
[2] = test system: CD8+ T cells; assay: WT-1 peptide specific CTL responses in vivo (ELISPOT); conditions: mouse
Protocol: Mouse footpads of C57BL/6 or BALB/c, depending on the peptide specificity, are injected with the various OVA constructs in the presence or absence of adjuvant (Titermax, Sigma) along with appropriate control groups. Serum from immunized animals is obtained via retro-orbital bleeding and assayed for SWNT specific Abs using the ELISA protocol described above.
HA-Multiscreen plates were coated with rat-anti-mouse IFN-g antibody (MabTech). CD8+ T cells isolated and purified from the paplitial lymph nodes of immunized animals are plated, and APCs from a non-immunized mouse are isolated, irradiated, pulsed with peptides, and added to the CD8+ T cells at an E:T ratio of 1:4. The cellular mixture is incubated overnight at 37° C. and the plates were developed the next day using an antibody against rat IgG. Spots were counted using a computer assisted video image analyzer with KS ELISPOT 4.0 software (Carol Zeiss Vision, Germany).
A few of these peptides were screened for their ability to elicit WT-1 peptide specific CTL responses in vivo using the methods described above.

[3] = test system: tumor expressing cells; conditions: previous reports; cited from earlier work
[4] = test system: peptide pulsed APCs; assay: ^51Cr cytotoxicity assay; assay type: cell-based, mouse; conditions: E:T ratios 1:60-1:7, 4 hours
Protocol: To detect the cytotoxic nature of the activated CD8+ T cells peptide specific CD8+ cells and irradiated peptide pulsed APCs were prepared as described above. The peptide sensitized APCs were labeled with 100 μCi of ^51Cr and incubated together with the CD8+ cells at E:T ratios varying from 1:60-1:7. After incubation together for 4 hours, supernatants were harvested and measured in a gamma counter.

[5] = test system: GFP1/FFLuc1 Daudi tumor; assay: Biodistribution and tumor targeting in disseminated lymphoma model; assay type: in vivo; conditions: 24 h after i.v. injection, tumor-bearing scid mice
Protocol: The specific SWNT-rituximab-^111In*DOTA construct or control SWNT-HuM195-^111In*DOTA (Lintuzumab) construct was prepared by adding 111-185 MBq of acidic 111In chloride to 0.50 mg of SWNT-rituximab-DOTA or SWNT-HuM195-DOTA (50 g/L) in MFW and 0.050 mL of 3 M ammonium acetate to yield a pH 5.5 solution. The reaction mixture was maintained at ambient temperature for 30 min and then purified using a 10DG column with 1% HSA/0.9% NaCl. The radiochemical purity of SWNT-rituximab-DOTA or SWNT-HuM195-DOTA was 95% and the radiolabeled Rituximab was 98% as determined by the ITLC-SG methods described herein.
The biodistribution and tumor targeting specificity of SWNT-rituximab-^111In*DOTA was evaluated against different controls in a murine model of disseminated lymphoma (33) using the GFP1/FFLuc1 Daudi cell line. The tumor was introduced by injecting 5 million cells into each of the female C.B.-17 severe combined immunodeficiency (scid) mice (8- to 10-wk old; Taconic Farms) intravenously via the retroorbital sinus route. Tumor growth in mice was determined by BLI using a Xenogen IVIS Optical Imaging System (Xenogen Corp.). Imaging was performed on mice that received an intraperitoneal injection of 3 mg of D-Luciferin (Xenogen) per mouse. On day 28 after tumor infusion, the tumor-bearing mice were separated into 4 groups; an additional 2 groups of scid mice with no tumor were included as control. […]

[6] = test system: Daudi (CD20+, specific); conditions: reference (33); cited from earlier work

Row | Molecule | stimulation of CD8+ T cells that cross react with the native sequence [2] | immune response (WT-1 peptide specific CTL response in vivo) [2] | other results
1 | O=C(O)CCCC[C@@H]1SC[C@@H]2NC(=O)N[C@@H]21 [biotin] |  |  | inhibition of serum antibodies [1]: did not
2 | ALLPAVSSL [WTI-10] | unable |  | 
3 | AYLPAVSSL [WTI-10A] | stimulated CD8+ T cells that cross reacted with the native sequence | robust immune response | 
4 | CMTWNQMNL [WTI-235] | unable |  | ability to kill tumor expressing cells or to produce a successful vaccine [3]: limited ability
5 | CMTWNQMNM [WTI-235A] | stimulated CD8+ T cells that cross reacted with the native sequence | robust immune response | heteroclitic response [4]: able to stimulate a heteroclitic response; killing of peptide pulsed targets by CD8+ T cells [4]: killed pulsed targets
6 | RYFPNAPYL [WTI-126A] |  |  | heteroclitic response [4]: able to stimulate a heteroclitic response; killing of peptide pulsed targets by CD8+ T cells [4]: killed pulsed targets
7 | SCLESQPTI [WTI-136] | unable |  | 
8 | SYLESQPTI [WTI-136A] | stimulated CD8+ T cells that cross reacted with the native sequence | robust immune response | 
9 | [111In]Rituximab: ^111In-labeled Rituximab targeting antibody, positive control |  |  | femur % ID/g [5]: 11.4±3.32 % ID/g; immunoreactive fraction measured previously [6]: 42%±17%
